Measured values published in ChEMBL document CHEMBL6109093, “Designing novel nucleoside inhibitors targeting the allosteric site of PBP2a: A strategic approach to overcome resistance in MRSA” (Bioorg Med Chem, 2025).
Values after ≈ are worked out from the molar mass of the structure shown. Active and inactive are the calls of the source. The calls are words filed in the database; no cut-off is given here.

Columns and labels:
Staphylococcus aureus [1] = test: Resistance development in methicillin-resistant Staphylococcus aureus Mu 50 assessed as MIC after 9 passages by broth dilution method; assay type: functional
Staphylococcus aureus [2] = test: Antibacterial activity against methicillin-resistant Staphylococcus aureus Mu 50 measured after 24 hrs by turbidimetric assay; assay type: functional
Staphylococcus aureus [3] = test: Resistance development in methicillin-resistant Staphylococcus aureus Mu 50 assessed as fold change in MIC after and before 6 passages by broth dilution method; assay type: functional
[4] = Cytotoxicity against mouse BEND3 cells assessed as reduction in cell viability at 64 ug/ml measured after 24 hrs by CCK-8 assay; assay type: toxicity, cell-based; settings: bend3, 24 h, dose 64 µg/ml
Staphylococcus aureus [5] = test: Antibacterial activity against methicillin-resistant Staphylococcus aureus Mu 50 at 4 to 32 ug/ml measured at 1 hr interval for 24 hrs; assay type: functional, organism-based; settings: dose 4-32 µg/ml
Staphylococcus aureus [6] = test: Synergistic antibacterial activity against methicillin-resistant Staphylococcus aureus Mu 50 at 16 to 32 ug/ml measured at 1 hr interval for 24 hrs in presence of oxacillin; assay type: functional, organism-based; settings: dose 16-32 µg/ml
Staphylococcus aureus [7] = test: Synergistic antibacterial activity against methicillin-resistant Staphylococcus aureus Mu 50 at 64 to 128 ug/ml measured at 1 hr interval for 24 hrs in presence of oxacillin; assay type: functional, organism-based; settings: dose 64-128 µg/ml
[8] = Cytotoxicity against human intestinal epithelial cells assessed as reduction in cell viability at 64 ug/ml measured after 24 hrs by CCK-8 assay; assay type: toxicity, cell-based; settings: dose 64 µg/ml
[9] = molecular target: T1, MecA (Staphylococcus aureus) (UniProt Q7DHH4); test: Inhibition of PBP2a in methicillin-resistant Staphylococcus aureus Mu 50 assessed as abnormal cell division at 16 ug/ml measured after 12 hrs by transmission electron microscopy; settings: dose 16.0 µg/ml
T1 sequence (whole entry): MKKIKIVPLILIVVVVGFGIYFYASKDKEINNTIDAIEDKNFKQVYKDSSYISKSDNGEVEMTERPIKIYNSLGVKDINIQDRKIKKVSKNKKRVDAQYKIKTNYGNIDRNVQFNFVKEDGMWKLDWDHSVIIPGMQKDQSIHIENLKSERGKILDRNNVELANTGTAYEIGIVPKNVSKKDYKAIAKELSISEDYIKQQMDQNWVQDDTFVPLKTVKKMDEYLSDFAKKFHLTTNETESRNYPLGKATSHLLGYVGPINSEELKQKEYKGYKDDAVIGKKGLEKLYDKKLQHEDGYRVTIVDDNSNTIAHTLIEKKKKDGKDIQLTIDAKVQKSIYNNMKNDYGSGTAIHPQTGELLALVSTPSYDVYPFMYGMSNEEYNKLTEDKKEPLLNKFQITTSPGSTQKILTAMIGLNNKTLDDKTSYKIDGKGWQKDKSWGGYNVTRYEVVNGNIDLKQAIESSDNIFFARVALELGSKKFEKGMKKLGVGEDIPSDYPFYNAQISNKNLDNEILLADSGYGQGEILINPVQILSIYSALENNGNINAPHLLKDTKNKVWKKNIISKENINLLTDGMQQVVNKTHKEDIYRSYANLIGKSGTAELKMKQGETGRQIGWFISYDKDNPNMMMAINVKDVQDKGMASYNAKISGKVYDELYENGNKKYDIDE

Staphylococcus aureus [10] = test: Bactericidal activity against methicillin-resistant Staphylococcus aureus Mu 50 assessed as reduction in colony formation at 8 to 32 ug/ml measured after 3 hrs by time-kill assay; assay type: functional, organism-based; settings: dose 8-32 µg/ml
Staphylococcus aureus [11] = test: Bactericidal activity against methicillin-resistant Staphylococcus aureus Mu 50 assessed as reduction in colony formation measured after 2 to 24 hrs by time-kill assay; assay type: functional, organism-based; settings: dose 8-32 µg/ml, time 2-24 hrs
[12] = molecular target: T1, MecA (Staphylococcus aureus); test: Inhibition of PBP2a in methicillin-resistant Staphylococcus aureus Mu 50 assessed as blurred cell wall boundaries at 16 ug/ml measured after 12 hrs by transmission electron microscopy; settings: dose 16.0 µg/ml
Escherichia coli = test: Antibacterial activity against Escherichia coli ATCC 25922 measured after 24 hrs by turbidimetric assay; assay type: functional
Staphylococcus aureus [13] = test: Antibacterial activity against methicillin-sensitive Staphylococcus aureus ATCC 29213 at 4 to 32 ug/ml measured at 1 hr interval for 24 hrs; assay type: functional, organism-based; settings: dose 4-32 µg/ml
Staphylococcus aureus [14] = test: Antibacterial activity against methicillin-sensitive Staphylococcus aureus ATCC 29213 measured after 24 hrs by turbidimetric assay; assay type: functional
[15] = molecular target: T1, MecA (Staphylococcus aureus); test: Inhibition of PBP2a in methicillin-resistant Staphylococcus aureus Mu 50 assessed as disruption of bacterial cell wall integrity by measuring release of intracellular contents at 64 ug/ml measured after 12 hrs by transmission electron microscopy; assay type: cell-based; settings: dose 64.0 µg/ml

Row | SMILES | MIC (Staphylococcus aureus [2]) | MIC (Escherichia coli) | MIC (Staphylococcus aureus [14]) | also measured
1 | CCO/N=C(\C(=O)N[C@@H]1C(=O)N2C(C(=O)[O-])=C(Sc3nc(-c4cc[n+](C)cc4)cs3)CS[C@H]12)c1nsc(NP(=O)(O)O)n1 [CEFTAROLINE FOSAMIL] | 32 µg/mL (≈ 46.7 µM) | – | – | MIC (Staphylococcus aureus [1]): 128 µg/mL (≈ 187 µM); fold change (FC) (Staphylococcus aureus [3]): 2
2 | Nc1ncnc2c1c(C#Cc1ccc3sccc3c1)cn2[C@@H]1O[C@H](CSCc2cccc(C(=O)O)c2)[C@@H](O)[C@H]1O | 16 µg/mL (≈ 27.9 µM) | > 128 µg/mL | > 128 µg/mL | Activity [4]: Non-toxic; MIC (Staphylococcus aureus [1]): 64 µg/mL (≈ 112 µM); Activity (Staphylococcus aureus [5]): Active; Significant Inhibition Observed; Activity (Staphylococcus aureus [6]): Active; Enhanced The Inhibitory Effect Of Oxacillin; Activity (Staphylococcus aureus [7]): Not active; Decreased The Activity Of Oxacillin; Activity [8]: Non-toxic; inhibition [9]: Active; Significantly Inhibits The Cross-Linking Of Peptidoglycan Substrates By Pbp2A; Activity (Staphylococcus aureus [10]): Active; Significant Reduction Observed; Activity (Staphylococcus aureus [11]): Dose-dependent-effect; inhibition [12]: Active; Significantly Inhibits The Cross-Linking Of Peptidoglycan Substrates By Pbp2A; Activity (Staphylococcus aureus [13]): inactive
3 | Nc1ncnc2c1ncn2[C@@H]1O[C@H](CSCc2cncc(C(=O)O)n2)[C@@H](O)[C@H]1O | > 128 µg/mL | > 128 µg/mL | > 128 µg/mL | –
4 | N#Cc1cccc(CSC[C@H]2O[C@@H](n3cnc4c(N)ncnc43)[C@H](O)[C@@H]2O)c1 | > 128 µg/mL | > 128 µg/mL | > 128 µg/mL | –
5 | Nc1ncnc2c1c(C#Cc1cccnc1)cn2[C@@H]1O[C@H](CSCc2cccc(C(=O)O)c2)[C@@H](O)[C@H]1O | > 128 µg/mL | > 128 µg/mL | > 128 µg/mL | –
6 | Nc1ncnc2c1c(C#Cc1ccccc1)cn2[C@@H]1O[C@H](CSCc2cccc(C(=O)O)c2)[C@@H](O)[C@H]1O | > 128 µg/mL | > 128 µg/mL | > 128 µg/mL | –
7 | Nc1ncnc2c1c(C#Cc1ccc3ccccc3c1)cn2[C@@H]1O[C@H](CSCc2cccc(C(=O)O)c2)[C@@H](O)[C@H]1O | 32 µg/mL (≈ 56.5 µM) | > 128 µg/mL | > 128 µg/mL | –
8 | Nc1ncnc2c1ncn2[C@@H]1O[C@H](CSCc2cccc(C(=O)O)n2)[C@@H](O)[C@H]1O | > 128 µg/mL | > 128 µg/mL | > 128 µg/mL | –
9 | Nc1ncnc2c1c(C#Cc1cccc(F)c1)cn2[C@@H]1O[C@H](CSCc2cccc(C(=O)O)c2)[C@@H](O)[C@H]1O | > 128 µg/mL | > 128 µg/mL | > 128 µg/mL | –
10 | Nc1ncnc2c1c(C#Cc1cccc([N+](=O)[O-])c1)cn2[C@@H]1O[C@H](CSCc2cccc(C(=O)O)c2)[C@@H](O)[C@H]1O | > 128 µg/mL | > 128 µg/mL | > 128 µg/mL | –
11 | Nc1ncnc2c1ncn2[C@@H]1O[C@H](CSCc2cc(C(=O)O)no2)[C@@H](O)[C@H]1O | > 128 µg/mL | > 128 µg/mL | > 128 µg/mL | –
12 | Nc1ncnc2c1ncn2[C@@H]1O[C@H](CSCc2cccc(C(=O)O)c2)[C@@H](O)[C@H]1O | > 128 µg/mL | > 128 µg/mL | > 128 µg/mL | –
13 | Cc1onc(-c2ccccc2)c1C(=O)N[C@@H]1C(=O)N2[C@@H]1SC(C)(C)[C@@H]2C(=O)O [OXACILLIN] | 64 µg/mL (≈ 159 µM) | – | – | inhibition [15]: Active
